How the values were obtained:
human H3 receptor [1] = target: T1, human H3 receptor (Homo sapiens, UniProt Q9Y5N1); experiment: In vitro H3 binding assay (3H-N-α-methyl-histamine competition binding); conditions: membranes of CHO-K1 cells expressing human H3 receptor; 2 nM 3H-NαMH; read-out: hH3 binding IC50
T1 construct: expressed in transfected cells
Experimental: The ability of compounds to bind to the H3 receptor was determined by measuring the reduction in tritiated N-α-methyl-histamine (^3H—NαMH) binding in a competition binding assay. Changes in the levels of bound radio-label were monitored by scintillation counting with a Trilux Microbeta (Perkin Elmer).
Membranes were prepared from CHO-K1 cells stably expressing human H3 receptor; routinely grown as monolayers in Ham's F12 medium (Invitrogen) supplemented with 10% Foetal Clone 111 (Hyclone), 500 μg/ml G418 (Invitrogen), 5 μg/ml blasticidine S (Invivogen) and […] Gentamicin (Sigma) in 5% CO2 at 37° C. Cells were grown to 80-95% confluency, rinsed once with 1×PBS (Invitrogen) and detached by incubating with 1×PBS containing 0.02% EDTA (Sigma) for 10 minutes at room temperature. Cells were collected by centrifugation at 900×g, 4° C. for 10 minutes. Cells were rinsed once with 1×PBS and re-suspended in ice cold homogenisation buffer (50 mM Tris-HCl (pH 7.4), 2.5 mM EDTA, 5 mM MgCl2, 200 mM Sucrose) at 1×10^7 cells/ml and kept on ice. Cells were homogenised on ice and debris removed by centrifugation at 500×g, 4° C. for 5 minutes. The resulting supernatant was centrifuged at 75,600×g, 4° C. for 60 minutes. Membranes were suspended in homogenisation buffer, protein concentration was determined (BCA Protein Assay kit (Pierce)), diluted to 2.2 mg/ml, dispensed into 1 ml aliquots and stored at −80° C.
Membranes were thawed on ice, sonicated with 4 cycles of 20 pulses (50% amplitude, 0.5 pulse) (UP200S Hielscher) on ice, diluted in assay buffer (50 mM Tris-HCl (pH7.4), 5 mM MgCl2) to 62.5 μg/ml. Compound was serially diluted in DMSO before being diluted 1:10 with assay buffer. 5 μg of membrane in 80 μl of assay buffer was added per well of a 96 well polystyrene plate (Corning). […] of compound was added per well. The assay was initiated by the addition of 10 μl of 20 nM ^3H—NαMH per well and incubated for one hour at room temperature with shaking. Total binding was determined in the presence of 1% DMSO and non-specific binding was determined by the inclusion of 1 μM R-α-methyl-histamine (RαMH). Incubations were then filtered through filtermat A (Perkin Elmer) and washed three times with assay buffer. Filtermats were dried at 42° C. for two hours, scintillant added and the level of bound radioactivity determined.
IC50 values for compounds were determined from seven point log scale dose-response studies and represent the concentration of compound required to inhibit 50% of the specific binding of 2 nM ^3H—NαMH (difference between total and non-specific binding). Curves were generated using the average of duplicate wells for each data point and analyzed using nonlinear regression of sigmoidal dose response (variable slope).

human H3 receptor [2] = target: T1, human H3 receptor; experiment: In vitro H3 functional assay (cAMP response element driven luciferase reporter); type: cell-based; conditions: CHO(dhfr+)-cre-luc cells expressing human H3 receptor; RαMH 10 nM, forskolin 1 μM; read-out: hH3 functional IC50
Experimental: The functional activity of compounds at the H3 receptor was determined by measuring changes in the level of intracellular cAMP using a cAMP response element driven luciferase reporter assay. The changes in luciferase expression were monitored by a luminescence plate reader, Analyst HT (MDS Analytical). Increases in intracellular cAMP were readily detected upon activation of protein kinase A by forskolin (Sigma) and suppression of this response observed with the application of the H3 receptor agonist RαMH (Sigma).
CHO(dhfr^+)-cre-luc cells stably expressing human H3 receptor were routinely grown as monolayers in Minimal Essential Medium α (MEMα) (Invitrogen) supplemented with 10% dialysed FBS (Hyclone), in 5% CO2 at 37° C. 48 hours prior to assay, cells were seeded in clear-base white walled 384-well plates (Corning) at a density of 5000 cells/well. On the day of assay, growth media was removed and replaced with […] of assay buffer (MEMα, 5 mg/ml fatty acid free BSA (Sigma)) per well. Cells were then incubated for 30 minutes at 37° C., 5% CO2. Compound was serially diluted in DMSO before being diluted 1:10 with assay buffer. 2.5 of compound diluted in assay buffer was added and cells incubated for 5 minutes at 37° C., 5% CO2. 2.5 μl of each reagent was then added in the following order: RαMH (10 nM), isobutylmethylxanthine (1-methyl-3-(2-methylpropyl)-7H-purine-2,6-dione; IBMX) (500 μM) (Sigma) and forskolin (1 μM). Cells were then incubated for 90 minutes at 37° C., 5% CO2, followed by 30 minutes at room temperature. At the end of incubation 25 μl of Steadylite reagent (Perkin Elmer) was added, plates were sealed and placed on a shaker for 5 minutes. The level of light output to determine the level of luciferase expression was then measured.
IC50 values for compounds were determined from ten point half log scale dose-response studies and represent the concentration of compound required to […] 50% inhibition of forskolin stimulated cells in the presence of RαMH alone. Curves were generated using the average of duplicate wells for each data point and analyzed using nonlinear regression of four parameter dose response.

T1 sequence (Q9Y5N1 whole entry): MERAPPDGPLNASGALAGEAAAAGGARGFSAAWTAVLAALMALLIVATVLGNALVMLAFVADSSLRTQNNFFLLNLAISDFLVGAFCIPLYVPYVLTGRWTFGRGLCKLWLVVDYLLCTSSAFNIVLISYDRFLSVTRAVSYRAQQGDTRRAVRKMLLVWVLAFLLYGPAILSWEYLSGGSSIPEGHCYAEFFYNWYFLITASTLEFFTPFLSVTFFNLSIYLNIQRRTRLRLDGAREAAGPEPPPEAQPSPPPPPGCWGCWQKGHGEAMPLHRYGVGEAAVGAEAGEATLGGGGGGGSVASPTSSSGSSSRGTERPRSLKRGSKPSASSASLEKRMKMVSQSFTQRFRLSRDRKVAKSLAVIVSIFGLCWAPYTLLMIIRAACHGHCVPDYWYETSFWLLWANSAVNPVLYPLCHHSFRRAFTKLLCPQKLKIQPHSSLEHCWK

Row | IC50 (human H3 receptor [1]) [nM] | IC50 (human H3 receptor [2]) [nM] | SMILES
1 | 51 | 6 | CNC(=O)c1ccc(CNC(=O)c2ccc3c(c2)CCN(C2CCC2)CC3)cc1 [Example 53, 3-Cyclobutyl-N-(4-(methylcarbamoyl)benzyl)-2,3,4,5-tetrahydro-1H-benzo[d]azepine-7-carboxamide]
2 | 22 | 71 | NC(=O)c1ccc2c(c1)CCN(C1CCC1)CC2 [Example 167, 3-cyclobutyl-2,3,4,5-tetrahydro-1H-benzo[d]azepine-7-carboxamide]
3 | 18 | 6 | Cc1noc(C)c1C(=O)NCc1ccc2c(c1)CCN(C1CCC1)CC2 [Example 263, N-[(3-cyclobutyl-2,3,4,5-tetrahydro-1H-3-benzazepin-7-yl)methyl]-3,5-dimethyl-1,2-oxazole-4-carboxamide]
4 | 3 | 1 | O=C(NCc1nccs1)c1ccc2c(c1)CCN(C1CCC1)CC2 [Example 86, 3-Cyclobutyl-N-(thiazol-2-ylmethyl)-2,3,4,5-tetrahydro-1H-benzo[d]azepine-7-carboxamide]
5 | 2 | 16 | CCC(=O)N1CCC(CC(O)Cc2ccc3c(c2)CCN(C2CCC2)CC3)CC1 (single isomer, unassigned) [Example 233, 1-(4-(3-(3-cyclobutyl-2,3,4,5-tetrahydro-1H-benzo[d]azepin-7-yl)-2-hydroxypropyl)piperidin-1-yl)propan-1-one]
6 | 4 | 1 | O=C(NCc1ccc(C(F)(F)F)o1)c1ccc2c(c1)CCN(C1CCC1)CC2 [Example 92, 3-cyclobutyl-N-((5-(trifluoromethyl)furan-2-yl)methyl)-2,3,4,5-tetrahydro-1H-benzo[d]azepine-7-carboxamide]
7 | 2 | 0.5 | O=C(NCc1cccc(-c2nccs2)c1)c1ccc2c(c1)CCN(C1CCC1)CC2 [Example 69, 3-Cyclobutyl-N-(3-(thiazol-2-yl)benzyl)-2,3,4,5-tetrahydro-1H-benzo[d]azepine-7-carboxamide]
8 | 10 | 10 | CC(=O)N1CCC(C(O)Cc2ccc3c(c2)CCN(C2CCC2)CC3)CC1 (racemic) [Example 146, 1-(4-(2-(3-cyclobutyl-2,3,4,5-tetrahydro-1H-benzo[d]azepin-7-yl)-1-hydroxyethyl)piperidin-1-yl)ethanone]
9 | 14 | 3 | Nc1ncccc1CNC(=O)c1ccc2c(c1)CCN(C1CCC1)CC2 [Example 44, N-((2-Aminopyridin-3-yl)methyl)-3-cyclobutyl-2,3,4,5-tetrahydro-1H-benzo[d]azepine-7-carboxamide]
10 | 1 | 2 | O=C(NCc1c[nH]c2ccccc12)c1ccc2c(c1)CCN(C1CCC1)CC2 [Example 72, N-((1H-Indol-3-yl)methyl)-3-cyclobutyl-2,3,4,5-tetrahydro-1H-benzo[d]azepine-7-carboxamide]
11 | 26 | 5 | O=C(NCC1CCCCC1)c1ccc2c(c1)CCN(C1CCC1)CC2 [Example 34, 3-Cyclobutyl-N-(cyclohexylmethyl)-2,3,4,5-tetrahydro-1H-benzo[d]azepine-7-carboxamide]
12 | 1 | 4 | O=C(NCc1ccc2c(c1)CCN(C1CCC1)CC2)c1ccc(NC2CCC2)nc1 [Example 253, N-((3-cyclobutyl-2,3,4,5-tetrahydro-1H-benzo[d]azepin-7-yl)methyl)-6-(cyclobutylamino)nicotinamide]
13 | 11 | 6 | CCC(=O)N1CCC[C@H](CC(O)Cc2ccc3c(c2)CCN(C2CCC2)CC3)C1 (single isomer, unassigned) [Example 251]
14 | 12 | 19 | Cn1cncc1CNC(=O)c1ccc2c(c1)CCN(C1CCC1)CC2 [Example 114, 3-Cyclobutyl-N-((1-methyl-1H-imidazol-5-yl)methyl)-2,3,4,5-tetrahydro-1H-benzo[d]azepine-7-carboxamide]
15 | 9 | 2 | Cc1c(CNC(=O)c2ccc3c(c2)CCN(C2CCC2)CC3)cnn1C [Example 97, 3-Cyclobutyl-N-((1,5-dimethyl-1H-pyrazol-4-yl)methyl)-2,3,4,5-tetrahydro-1H-benzo[d]azepine-7-carboxamide]
16 | 13 | 1 | Cn1ccc(CCC(=O)c2ccc3c(c2)CCN(C2CCC2)CC3)n1 [Example 134, 1-(3-cyclobutyl-2,3,4,5-tetrahydro-1H-benzo[d]azepin-7-yl)-3-(1-methyl-1H-pyrazol-3-yl)propan-1-one]
17 | 5 | 2 | O=C(NCc1ccsc1)c1ccc2c(c1)CCN(C1CCC1)CC2 [Example 88, 3-Cyclobutyl-N-(thiophen-3-ylmethyl)-2,3,4,5-tetrahydro-1H-benzo[d]azepine-7-carboxamide]
18 | 6 | 3 | Cn1c(CNC(=O)c2ccc3c(c2)CCN(C2CCC2)CC3)nc2ccccc21 [Example 79, 3-Cyclobutyl-N-((1-methyl-1H-benzo[d]imidazol-2-yl)methyl)-2,3,4,5-tetrahydro-1H-benzo[d]azepine-7-carboxamide]
19 | 11 | 2 | O=C(NCc1ccccc1)c1ccc2c(c1)CCN(C1CCC1)CC2 [Example 23, N-Benzyl-3-cyclobutyl-2,3,4,5-tetrahydro-1H-benzo[d]azepine-7-carboxamide]
20 | 41 | 20 | CC(C)(O)CC(=O)NCc1ccc2c(c1)CCN(C1CCC1)CC2 [Example 216, N-((3-cyclobutyl-2,3,4,5-tetrahydro-1H-benzo[d]azepin-7-yl)methyl)-3-hydroxy-3-methylbutanamide]
21 | 23 | 15 | CCNC(=O)C1CCC(O)(Cc2ccc3c(c2)CCN(C2CCC2)CC3)CC1 (stereo not drawn) [Example 231, 4-((3-cyclobutyl-2,3,4,5-tetrahydro-1H-benzo[d]azepin-7-yl)methyl)-N-ethyl-4-hydroxycyclohexanecarboxamide]
22 | 44 | 16 | CNC(=O)c1ccc2c(c1)CCN(C1CCC1)CC2 [Example 24, 3-Cyclobutyl-N-methyl-2,3,4,5-tetrahydro-1H-benzo[d]azepine-7-carboxamide]
23 | 1 | 3 | O=C(NCc1cccc(-n2cncn2)c1)c1ccc2c(c1)CCN(C1CCC1)CC2 [Example 68, N-(3-(1H-1,2,4-Triazol-1-yl)benzyl)-3-cyclobutyl-2,3,4,5-tetrahydro-1H-benzo[d]azepine-7-carboxamide]
24 | 11 | 3 | O=C(NCc1cccnc1)c1ccc2c(c1)CCN(C1CCCC1)CC2 [Example 20, 3-Cyclopentyl-N-(pyridin-3-ylmethyl)-2,3,4,5-tetrahydro-1H-benzo[d]azepine-7-carboxamide]
